Consider two compounds from patent EP0526540B1, “USE OF 5-HT4-RECEPTOR ANTAGONISTS IN THE TREATMENT OF ATRIAL FIBRILLATION, INCLUDING THE PREVENTION OF STROKE” (SMITH KLINE & FRENCH LABORATORIES LIMITED, priority 1990, dated 1991).

The target in test [1] is cardiac 5-HT4 receptors (Sus scrofa, UniProt Q6Q253). Nature of the test: Piglet spontaneous beating atria screen (right atrium, positive chronotropic effect, antagonism of 5-HT). The test is classed as cell-based, Porcine. The method, then:
Method (See A. J. Kaumann, 1990, Naunyn-Schmiedeberg's Arch. Pharmacol 342, 619-622).
Piglets of either sex, 2 to 5 days old, were obtained from local farms. Usually 2 piglets were from the same litter. The piglets were anaesthetised with halothene; their hearts rapidly removed and washed free of blood with warm solution containing (mM):120 Na^+, 5 K^+, 2.25 Ca^2+, 0.5 Mg^2+, 98.5 Cl^-, 0.5 SO4^2-, 34 HCO3^-, 1 HPO4^2-, 0.04 EDTA, deionised and double distilled water in glass, equilibrated with 95% O2 and 5% CO2.
After dissection of the right atrium in warm solution, the tissue was set up in an apparatus with a 50 ml. bath (Blinks, 1965 J. Appl. Physiol. 20, 755-757), containing the solution described above supplemented with (mM):15 Na^+, 5 fumarate, 5 pyruvate, 5 L-glutamate, 10 glucose. Experiments were carried out at 37°C. […] The tissue was attached to a Swema SG4-45 strain gauge transducer by means of a stainless steel wire and force recorded on a Watanabe polygraph. […]
A single cumulative concentration-effect curve was determined by the sequential addition of 5-HT or other agonists to the bath in amounts that increased the total concentration in steps of ½ log unit. […] The time of incubation with an antagonist was at least 1 hr before a concentration-effect curve for an agonist was determined.

The target in test [2] is T1, cardiac 5-HT4 receptors (Homo sapiens, UniProt Q13639).
T1 construct: from tissue; host or cells: human right atrial preparation
T1 sequence (Q13639 whole entry): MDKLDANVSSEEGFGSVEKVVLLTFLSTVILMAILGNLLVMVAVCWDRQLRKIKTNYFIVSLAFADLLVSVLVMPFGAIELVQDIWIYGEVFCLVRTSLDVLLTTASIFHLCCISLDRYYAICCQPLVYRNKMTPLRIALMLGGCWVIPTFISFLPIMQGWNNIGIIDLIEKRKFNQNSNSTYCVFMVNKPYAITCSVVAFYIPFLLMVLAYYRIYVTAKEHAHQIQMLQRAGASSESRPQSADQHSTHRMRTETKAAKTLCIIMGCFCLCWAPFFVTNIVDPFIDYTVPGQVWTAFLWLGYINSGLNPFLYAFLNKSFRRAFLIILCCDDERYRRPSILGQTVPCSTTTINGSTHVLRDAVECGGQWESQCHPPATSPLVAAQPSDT
Nature of the test: Human right atrial preparations (force), blocking potency of antagonists. The format is cell-based. As to conditions: Granisetron tested at 20 µM.

Chain of cardiac 5-HT4 receptors (Sus scrofa, UniProt Q6Q253) (Q6Q253 1-402): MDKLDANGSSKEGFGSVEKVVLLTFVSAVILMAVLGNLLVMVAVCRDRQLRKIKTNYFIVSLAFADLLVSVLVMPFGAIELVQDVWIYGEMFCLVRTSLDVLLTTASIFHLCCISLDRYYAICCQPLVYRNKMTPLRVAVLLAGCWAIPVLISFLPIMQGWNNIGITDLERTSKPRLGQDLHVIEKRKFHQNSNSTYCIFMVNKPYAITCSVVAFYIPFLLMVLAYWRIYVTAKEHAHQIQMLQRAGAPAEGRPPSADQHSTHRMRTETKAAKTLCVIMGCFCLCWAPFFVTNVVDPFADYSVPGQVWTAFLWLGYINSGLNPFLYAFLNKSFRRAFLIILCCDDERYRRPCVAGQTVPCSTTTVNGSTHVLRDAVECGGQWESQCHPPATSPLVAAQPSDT

`CN1[C@@H]2CC[C@H]1C[C@@H](OC(=O)c1n[nH]c3ccccc13)C2` [(3-α-tropanyl)-1H-indazole-3-carboxylic acid ester]: in test [1] (conclusion from the preliminary screening results of Table 1), the “type of antagonism of cardiac 5-HT4 receptors” value is reported as “competitive antagonist”.
With `CN1C2CCCC1CC(NC(=O)c1nn(C)c3ccccc13)C2` (stereo not drawn) [Granisetron], the “pK (-log M equilibrium dissociation constant), blocking potency, Human (force)” value in test [2] is on record as “ineffective (20 µM)”. Moreover, the “pK (-log M equilibrium dissociation constant), blocking potency, Porcine (rate)” value in test [1] (piglet spontaneously beating right atrium, rate, 37°C, 400 nM (±)-propranolol and 6 µM cocaine present, antagonist incubated at least 1 hr, Granisetron tested at 1 µM, preliminary screening results) is reported as “ineffective (1 µM)”.
